Data from PMC5645785 (Organic & biomolecular chemistry, 2016).
Like-named read-outs stand apart in the source and are kept apart here.

Columns and labels:
[1] = target: Escherichia coli GS (EcGS) (Escherichia coli, UniProt P0A6U8); test: EcGS activity, glycogen synthesis direction, absence of ADP; format: biochemical
[2] = target: Sucrose synthase 4 (SuSy4) (Solanum tuberosum, UniProt P10691); test: SuSy4 activity, sucrose synthesis direction, absence of UDP; format: biochemical, Solanum tuberosum L.
[3] = target: T1, Rabbit muscle GPa (RMGPa) (Oryctolagus cuniculus, UniProt P00489); test: RMGPa activity, glycogen phosphorolysis direction; format: biochemical; details: read-out: Km of RMGPa
T1 sequence (P00489 1-843): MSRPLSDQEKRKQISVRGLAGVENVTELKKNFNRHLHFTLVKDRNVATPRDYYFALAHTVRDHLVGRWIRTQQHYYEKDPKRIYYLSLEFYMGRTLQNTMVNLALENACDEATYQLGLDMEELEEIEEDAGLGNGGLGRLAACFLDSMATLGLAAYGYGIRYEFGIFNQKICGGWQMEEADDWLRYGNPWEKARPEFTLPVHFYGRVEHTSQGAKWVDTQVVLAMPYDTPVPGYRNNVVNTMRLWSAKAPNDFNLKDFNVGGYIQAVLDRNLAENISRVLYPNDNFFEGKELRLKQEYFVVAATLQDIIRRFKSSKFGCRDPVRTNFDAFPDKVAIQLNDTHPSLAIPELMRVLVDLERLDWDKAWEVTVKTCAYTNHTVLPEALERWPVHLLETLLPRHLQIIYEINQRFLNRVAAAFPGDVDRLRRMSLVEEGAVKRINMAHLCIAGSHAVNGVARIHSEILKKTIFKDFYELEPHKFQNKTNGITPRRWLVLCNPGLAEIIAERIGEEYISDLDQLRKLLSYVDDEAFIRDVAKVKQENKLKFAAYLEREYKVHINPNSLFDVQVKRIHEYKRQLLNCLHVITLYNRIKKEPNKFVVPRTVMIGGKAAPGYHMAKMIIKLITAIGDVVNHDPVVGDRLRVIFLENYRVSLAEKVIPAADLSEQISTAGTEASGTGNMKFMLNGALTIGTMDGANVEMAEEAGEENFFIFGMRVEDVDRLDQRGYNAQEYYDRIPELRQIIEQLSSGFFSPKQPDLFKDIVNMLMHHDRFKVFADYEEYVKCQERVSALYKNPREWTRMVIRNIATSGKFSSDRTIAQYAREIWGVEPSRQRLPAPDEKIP

[4] = test system: E. coli trehalose-6-phosphate synthase; details: cited from earlier work; for IC50: read-out: IC50 trehalose-6-phosphate synthase

Escherichia coli GS (EcGS), sequence (P0A6U8 whole entry): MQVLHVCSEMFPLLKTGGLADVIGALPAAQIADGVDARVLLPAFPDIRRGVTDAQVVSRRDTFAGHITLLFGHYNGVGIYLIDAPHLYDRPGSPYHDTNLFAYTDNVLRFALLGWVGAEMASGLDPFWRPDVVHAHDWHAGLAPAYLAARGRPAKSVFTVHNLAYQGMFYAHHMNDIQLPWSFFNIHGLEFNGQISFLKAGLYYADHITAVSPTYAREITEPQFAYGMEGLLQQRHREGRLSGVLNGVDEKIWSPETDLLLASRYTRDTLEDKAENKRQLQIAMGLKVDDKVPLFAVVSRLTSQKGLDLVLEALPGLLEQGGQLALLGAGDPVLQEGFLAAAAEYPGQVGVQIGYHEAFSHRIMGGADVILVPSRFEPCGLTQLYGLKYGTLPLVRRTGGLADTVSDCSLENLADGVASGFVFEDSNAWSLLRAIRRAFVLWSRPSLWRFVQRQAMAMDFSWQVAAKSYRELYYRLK
Sucrose synthase 4 (SuSy4), sequence (P10691 whole entry): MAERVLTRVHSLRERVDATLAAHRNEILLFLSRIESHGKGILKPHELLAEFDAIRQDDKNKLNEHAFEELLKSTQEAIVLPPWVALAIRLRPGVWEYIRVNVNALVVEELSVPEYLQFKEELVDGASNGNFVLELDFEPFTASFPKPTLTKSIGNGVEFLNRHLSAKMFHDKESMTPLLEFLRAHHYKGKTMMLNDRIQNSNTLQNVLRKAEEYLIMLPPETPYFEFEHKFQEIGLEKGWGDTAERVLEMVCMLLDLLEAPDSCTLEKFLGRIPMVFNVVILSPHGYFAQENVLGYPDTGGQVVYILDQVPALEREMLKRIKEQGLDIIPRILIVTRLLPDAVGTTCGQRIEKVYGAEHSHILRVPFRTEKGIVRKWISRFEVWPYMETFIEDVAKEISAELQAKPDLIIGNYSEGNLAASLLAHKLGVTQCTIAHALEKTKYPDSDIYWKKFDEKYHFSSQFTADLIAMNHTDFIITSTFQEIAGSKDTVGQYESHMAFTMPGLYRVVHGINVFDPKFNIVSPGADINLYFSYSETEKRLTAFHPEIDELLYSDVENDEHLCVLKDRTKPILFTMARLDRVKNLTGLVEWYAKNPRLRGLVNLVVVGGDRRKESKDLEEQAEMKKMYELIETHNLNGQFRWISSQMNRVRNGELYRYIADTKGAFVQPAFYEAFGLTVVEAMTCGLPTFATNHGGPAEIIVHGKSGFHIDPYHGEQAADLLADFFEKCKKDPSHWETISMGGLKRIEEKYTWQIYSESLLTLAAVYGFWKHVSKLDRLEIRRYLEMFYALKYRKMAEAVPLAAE

**Q.** For `Nc1ncnc2c1ncn2[C@@H]1O[C@H](COP(=O)(O)OP(=O)(O)O)[C@@H](O)[C@H]1O` [ADP], which Ki ([1]; read-out: Ki EcGS, substrate ADPG) is on record?
**A.** 87 ± 6 µM

**Q.** And the “Type of Inhibition EcGS” value ([1]; with respect to ADPG)?
**A.** Competitive

**Q.** With `OC[C@H]1NC[C@@H](O)[C@@H]1O` [DAB, 1,4-dideoxy-1,4-imino-D-arabinitol] as the molecule, how does the IC50 [2] read?
**A.** 246.5 ± 0.1 µM

**Q.** What about the IC50 [1] of the same molecule?
**A.** 1320 ± 10 µM

**Q.** Which “Activity (%) SuSy4” value ([2]; remaining activity, 0.5 mM inhibitor, 5 mM UDPG and 30 mM fructose) does the source give for `OC[C@@H]1NC[C@H](O)[C@H]1O` [LAB] here?
**A.** 89%

**Q.** And the “Activity (%) EcGS” value ([1]; remaining activity, 0.5 mM inhibitor, 2 mM ADPG and 4 mg mL−1 glycogen)?
**A.** 89%

**Q.** With `O=P(O)(O)O` [Pi, inorganic phosphate] as the molecule, how does the Km [3] read?
**A.** 1410 µM

**Q.** Which Ki ([2]; read-out: Ki SuSy4, substrate UDPG) does the source give for `O=c1ccn([C@@H]2O[C@H](COP(=O)(O)OP(=O)(O)O)[C@@H](O)[C@H]2O)c(=O)[nH]1` [UDP] here?
**A.** 145 ± 48 µM

**Q.** And the “Type of Inhibition SuSy4” value ([2]; with respect to UDPG)?
**A.** Competitive

**Q.** What does the source list for validoxylamine-6′-phosphate?
**A.** improvement of IC50 by UDP ([4]; 0.15 mM UDP): ca. 100 fold; IC50 ([4]; addition of 0.15 mM UDP): 41 µM; IC50 ([4]; without UDP): 5300 µM
